# Test results: publication PMC10175918 (Communications Biology, 2023)
# Where two headings read alike, the source gives them in different places.
# How the values were obtained:
# Assay in all cases: TGFα-shedding assay-based GPCR screening with chimeric Gα subunit proteins
# Format in all cases: cell-based
# 348 GPCRs [1] = molecular target: T1, 348 GPCRs (Homo sapiens, UniProt O15303); conditions: 10µM, Favipiravir 100μM
# T1 construct: expressed in transfected cells; host or cells: HEK293A
# 348 GPCRs [2] = molecular target: T2, 348 GPCRs (Homo sapiens, UniProt P41586); conditions: 10µM, Favipiravir 100μM
# T2 construct: expressed in transfected cells; host or cells: HEK293A
# T2 sequence (P41586 21-468): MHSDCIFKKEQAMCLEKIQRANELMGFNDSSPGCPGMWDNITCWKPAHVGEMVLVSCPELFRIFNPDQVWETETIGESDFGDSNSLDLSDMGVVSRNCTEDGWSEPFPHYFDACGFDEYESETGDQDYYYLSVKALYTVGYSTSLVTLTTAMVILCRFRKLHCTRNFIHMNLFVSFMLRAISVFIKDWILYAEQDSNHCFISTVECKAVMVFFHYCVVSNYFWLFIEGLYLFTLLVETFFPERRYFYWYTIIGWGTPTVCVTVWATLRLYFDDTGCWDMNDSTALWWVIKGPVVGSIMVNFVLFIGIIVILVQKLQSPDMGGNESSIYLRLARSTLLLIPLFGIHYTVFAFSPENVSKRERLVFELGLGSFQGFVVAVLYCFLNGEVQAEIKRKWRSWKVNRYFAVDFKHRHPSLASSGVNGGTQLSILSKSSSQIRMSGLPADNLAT
# 348 GPCRs [3] = molecular target: T3, 348 GPCRs (Homo sapiens, UniProt P48544); conditions: 10µM, Favipiravir 100μM
# T3 construct: expressed in transfected cells; host or cells: HEK293A
# T3 sequence (P48544 1-419): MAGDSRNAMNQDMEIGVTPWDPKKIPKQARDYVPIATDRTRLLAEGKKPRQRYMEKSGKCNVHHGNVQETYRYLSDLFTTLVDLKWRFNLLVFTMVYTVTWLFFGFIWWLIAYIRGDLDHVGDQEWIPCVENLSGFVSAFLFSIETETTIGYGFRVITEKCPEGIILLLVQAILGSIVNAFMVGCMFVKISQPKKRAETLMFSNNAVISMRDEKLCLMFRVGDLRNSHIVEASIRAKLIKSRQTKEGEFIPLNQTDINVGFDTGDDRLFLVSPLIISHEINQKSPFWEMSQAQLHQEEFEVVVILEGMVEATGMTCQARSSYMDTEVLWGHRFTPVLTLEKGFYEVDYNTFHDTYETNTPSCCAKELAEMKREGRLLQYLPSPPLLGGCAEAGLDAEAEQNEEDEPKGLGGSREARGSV
# 348 GPCRs [4] = molecular target: T4, 348 GPCRs (Homo sapiens, UniProt Q7Z7M1); conditions: 10µM, Favipiravir 100μM
# T4 construct: expressed in transfected cells; host or cells: HEK293A
# 348 GPCRs [5] = molecular target: T5, 348 GPCRs (Homo sapiens, UniProt Q99678); conditions: 10µM, Favipiravir 100μM
# T5 construct: expressed in transfected cells; host or cells: HEK293A
# 348 GPCRs [6] = molecular target: T6, 348 GPCRs (Homo sapiens, UniProt Q9NS75)
# T6 construct: expressed in transfected cells; host or cells: HEK293A
# T6 sequence (Q9NS75 1-346): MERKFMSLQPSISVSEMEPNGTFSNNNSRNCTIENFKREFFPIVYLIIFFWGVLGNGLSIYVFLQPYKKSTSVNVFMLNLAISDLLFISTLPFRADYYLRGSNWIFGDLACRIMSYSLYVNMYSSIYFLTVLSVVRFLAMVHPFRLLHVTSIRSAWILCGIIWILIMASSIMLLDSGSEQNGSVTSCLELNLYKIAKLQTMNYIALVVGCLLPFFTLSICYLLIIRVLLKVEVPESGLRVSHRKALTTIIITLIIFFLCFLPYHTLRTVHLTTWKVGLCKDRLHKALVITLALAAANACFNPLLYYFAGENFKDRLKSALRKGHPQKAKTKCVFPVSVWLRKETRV
# 348 GPCRs [7] = molecular target: T7, 348 GPCRs (Homo sapiens, UniProt Q9ULV1); conditions: 10µM, Favipiravir 100μM
# T7 construct: expressed in transfected cells; host or cells: HEK293A
# T7 sequence (Q9ULV1 37-537): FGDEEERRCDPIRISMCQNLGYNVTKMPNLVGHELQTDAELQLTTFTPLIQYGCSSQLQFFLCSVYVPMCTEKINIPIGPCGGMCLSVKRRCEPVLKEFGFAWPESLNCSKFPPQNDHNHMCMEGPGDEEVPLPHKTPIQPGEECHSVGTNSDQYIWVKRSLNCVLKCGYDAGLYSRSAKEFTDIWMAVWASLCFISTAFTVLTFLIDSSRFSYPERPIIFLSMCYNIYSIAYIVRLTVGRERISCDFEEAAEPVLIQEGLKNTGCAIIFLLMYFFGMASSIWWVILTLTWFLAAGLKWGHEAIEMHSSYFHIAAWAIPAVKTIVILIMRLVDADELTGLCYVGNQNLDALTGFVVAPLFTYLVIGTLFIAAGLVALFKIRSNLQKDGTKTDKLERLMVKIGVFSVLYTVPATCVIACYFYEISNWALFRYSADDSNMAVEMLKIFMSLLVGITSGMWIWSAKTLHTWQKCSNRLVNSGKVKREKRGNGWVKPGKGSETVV
# [8] = GRM6 (glutamate receptor, metabotropic 6), read-out: % GPCR activation compared to TPA
# [9] = ADCYAP1 (ADCYAP receptor type I), read-out: % GPCR activation compared to TPA
# [10] = KCNJ5 (potassium inwardly rectifying channel, subfamily J, member 5), read-out: % GPCR activation compared to TPA
# [11] = GPR144 (Adhesion G Protein-Coupled Receptor D2 (ADGRD2)), read-out: % GPCR activation compared to TPA
# [12] = GPR20 (G protein-coupled receptor 20), read-out: % GPCR activation compared to TPA
# [13] = GPCR CYSLTR2 (cysteinyl leukotriene receptor 2), read-out: % GPCR activation compared to TPA
# [14] = FZD4 (frizzled family receptor 4), read-out: % GPCR activation compared to TPA
# [15] = read-out: % GPCR activation compared to TPA, GRM6 (glutamate receptor, metabotropic 6)
# [16] = read-out: % GPCR activation compared to TPA, ADCYAP1 (ADCYAP receptor type I)
# [17] = read-out: % GPCR activation compared to TPA, KCNJ5 (potassium inwardly rectifying channel, subfamily J, member 5)
# [18] = read-out: % GPCR activation compared to TPA, GPR144 (Adhesion G Protein-Coupled Receptor D2 (ADGRD2))
# [19] = read-out: % GPCR activation compared to TPA, GPR20 (G protein-coupled receptor 20)
# [20] = read-out: % GPCR activation compared to TPA, GPCR CYSLTR2 (cysteinyl leukotriene receptor 2)
# [21] = read-out: % GPCR activation compared to TPA, FZD4 (frizzled family receptor 4)
# T1 sequence (O15303 25-877): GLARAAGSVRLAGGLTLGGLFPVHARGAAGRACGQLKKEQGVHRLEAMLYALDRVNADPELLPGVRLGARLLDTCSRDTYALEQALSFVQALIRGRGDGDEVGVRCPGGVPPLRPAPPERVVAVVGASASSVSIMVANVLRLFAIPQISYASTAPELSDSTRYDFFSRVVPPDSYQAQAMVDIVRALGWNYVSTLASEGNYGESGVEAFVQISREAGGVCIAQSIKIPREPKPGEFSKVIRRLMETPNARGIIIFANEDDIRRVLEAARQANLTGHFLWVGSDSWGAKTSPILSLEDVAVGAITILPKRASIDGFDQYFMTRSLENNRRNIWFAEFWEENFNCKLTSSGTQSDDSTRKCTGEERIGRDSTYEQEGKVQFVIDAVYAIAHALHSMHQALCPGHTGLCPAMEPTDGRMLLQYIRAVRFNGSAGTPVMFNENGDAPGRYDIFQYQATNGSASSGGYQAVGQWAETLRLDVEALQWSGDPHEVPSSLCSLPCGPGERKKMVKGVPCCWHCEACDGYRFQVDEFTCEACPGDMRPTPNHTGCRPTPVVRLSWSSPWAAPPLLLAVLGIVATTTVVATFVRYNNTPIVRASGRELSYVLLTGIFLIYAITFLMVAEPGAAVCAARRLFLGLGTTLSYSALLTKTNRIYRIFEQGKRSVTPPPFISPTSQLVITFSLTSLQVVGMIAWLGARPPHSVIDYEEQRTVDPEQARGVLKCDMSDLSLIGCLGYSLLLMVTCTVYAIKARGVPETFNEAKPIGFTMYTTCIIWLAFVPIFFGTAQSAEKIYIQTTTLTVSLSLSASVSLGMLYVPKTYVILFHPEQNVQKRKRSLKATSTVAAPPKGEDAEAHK
# T4 sequence (Q7Z7M1 whole entry): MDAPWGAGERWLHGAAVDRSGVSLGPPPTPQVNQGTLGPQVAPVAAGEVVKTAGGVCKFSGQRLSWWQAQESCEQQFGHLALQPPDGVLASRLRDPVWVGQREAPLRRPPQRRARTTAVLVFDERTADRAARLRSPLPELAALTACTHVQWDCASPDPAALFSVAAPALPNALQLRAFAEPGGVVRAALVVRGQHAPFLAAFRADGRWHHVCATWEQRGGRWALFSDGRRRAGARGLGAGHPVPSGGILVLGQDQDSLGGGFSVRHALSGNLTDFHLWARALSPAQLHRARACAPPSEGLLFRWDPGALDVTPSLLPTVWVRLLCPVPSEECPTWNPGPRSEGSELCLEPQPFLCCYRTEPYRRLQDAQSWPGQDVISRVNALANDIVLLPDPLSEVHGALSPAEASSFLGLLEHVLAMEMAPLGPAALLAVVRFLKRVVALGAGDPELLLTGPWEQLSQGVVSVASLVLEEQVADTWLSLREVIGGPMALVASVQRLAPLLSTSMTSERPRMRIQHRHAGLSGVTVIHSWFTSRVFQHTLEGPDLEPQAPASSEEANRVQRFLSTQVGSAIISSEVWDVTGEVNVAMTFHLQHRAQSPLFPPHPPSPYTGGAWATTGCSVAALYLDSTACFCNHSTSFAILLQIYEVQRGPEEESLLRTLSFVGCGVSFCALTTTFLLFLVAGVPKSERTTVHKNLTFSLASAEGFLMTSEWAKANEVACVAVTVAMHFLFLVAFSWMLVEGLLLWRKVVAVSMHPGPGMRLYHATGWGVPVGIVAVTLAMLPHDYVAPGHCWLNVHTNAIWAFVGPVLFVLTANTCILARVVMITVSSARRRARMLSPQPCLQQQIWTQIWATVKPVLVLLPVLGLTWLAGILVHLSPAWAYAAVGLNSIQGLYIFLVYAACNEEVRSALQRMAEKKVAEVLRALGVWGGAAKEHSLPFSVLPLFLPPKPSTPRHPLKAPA
# T5 sequence (Q99678 whole entry): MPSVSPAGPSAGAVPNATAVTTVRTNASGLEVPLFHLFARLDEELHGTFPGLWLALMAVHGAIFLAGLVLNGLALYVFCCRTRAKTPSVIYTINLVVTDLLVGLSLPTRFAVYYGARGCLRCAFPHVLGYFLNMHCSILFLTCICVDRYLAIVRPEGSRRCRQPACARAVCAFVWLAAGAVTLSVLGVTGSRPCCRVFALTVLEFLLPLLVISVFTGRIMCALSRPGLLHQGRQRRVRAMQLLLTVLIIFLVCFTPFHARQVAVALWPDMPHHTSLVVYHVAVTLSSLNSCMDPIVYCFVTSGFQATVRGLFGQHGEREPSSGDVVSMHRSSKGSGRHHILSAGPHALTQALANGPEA
SMILES,activation at 10 µM (348 GPCRs [1]; [8]),activation at 100 µM (348 GPCRs [2]; [9]),activation at 100 µM (348 GPCRs [3]; [10]),activation at 100 µM (348 GPCRs [4]; [11]),activation at 100 µM (348 GPCRs [5]; [12]),activation at 10 µM (348 GPCRs [6]; [13]),activation at 100 µM (348 GPCRs [7]; [14]),"activation at 100 µM (348 GPCRs [6]; GPCR CYSLTR2 (cysteinyl leukotriene receptor 2), 100μM, read-out: % GPCR activation compared to TPA)",activation at 10 µM (348 GPCRs [1]; [15]),activation at 100 µM (348 GPCRs [2]; [16]),activation at 100 µM (348 GPCRs [3]; [17]),activation at 100 µM (348 GPCRs [4]; [18]),activation at 100 µM (348 GPCRs [5]; [19]),activation at 10 µM (348 GPCRs [6]; [20]),activation at 100 µM (348 GPCRs [7]; [21])
CCC(CC)COC(=O)[C@H](C)N[P@](=O)(OC[C@H]1O[C@@](C#N)(c2ccc3c(N)ncnn23)[C@H](O)[C@@H]1O)Oc1ccccc1 [remdesivir],,,,,,,,,-1.74%,2.11%,1.55%,0.938%,8.9%,-0.408%,3.99%
CC(C)OC(=O)[C@H](C)N[P@](=O)(OC[C@H]1O[C@@H](n2ccc(=O)[nH]c2=O)[C@](C)(F)[C@@H]1O)Oc1ccccc1 [sofosbuvir],,,,,,,,,2.66%,-0.225%,-2.66%,0.00791%,-2.45%,-0.91%,-0.222%

# More lines, main results first:
activation at 10 µM (348 GPCRs [1]; [8]),activation at 100 µM (348 GPCRs [2]; [9]),activation at 100 µM (348 GPCRs [3]; [10]),activation at 100 µM (348 GPCRs [4]; [11]),activation at 100 µM (348 GPCRs [5]; [12]),activation at 10 µM (348 GPCRs [6]; [13]),activation at 100 µM (348 GPCRs [7]; [14]),"activation at 100 µM (348 GPCRs [6]; GPCR CYSLTR2 (cysteinyl leukotriene receptor 2), 100μM, read-out: % GPCR activation compared to TPA)",SMILES,activation at 10 µM (348 GPCRs [1]; [15]),activation at 100 µM (348 GPCRs [2]; [16]),activation at 100 µM (348 GPCRs [3]; [17]),activation at 100 µM (348 GPCRs [4]; [18]),activation at 100 µM (348 GPCRs [5]; [19]),activation at 10 µM (348 GPCRs [6]; [20]),activation at 100 µM (348 GPCRs [7]; [21])
-1.17%,3.21%,1.89%,-0.695%,7.2%,-1.21%,4.3%,,N#C[C@@]1(c2ccc3c(N)ncnn23)O[C@H](CO)[C@@H](O)[C@H]1O [GS441524],,,,,,,
-0.482%,-0.29%,-1.78%,-0.934%,3.63%,,0.755%,-1.33%,"NC(=O)c1nc(F)cnc1O [favipiravir, 6-fluoro-3-hydroxy-2-pyrazinecarboxamide]",,,,,,,
-2.76%,-0.597%,-0.841%,-1.45%,-0.078%,-0.187%,1.08%,,CC(C)C(=O)OC[C@H]1O[C@@H](n2ccc(NO)nc2=O)[C@H](O)[C@@H]1O [molnupiravir],,,,,,,
